The values that follow come from patent US20200308184A1, “TETRAPYRROLIC CONJUGATES AND USES THEREOF FOR IMAGING” (Health Research, Inc., priority 2017, published 2020).

Each structure is given as a SMILES string. Read-outs that look alike come from different tables or passages of the source.

For data set [1] the following is noted: published value, 37 C; cited from earlier work.
Data set [2] in a line: T1 and T2 relaxivities of compounds 4, 9 & 14 on 4.7 Tesla preclinical MRI. The class given is physicochemical. As to conditions: T1 relaxivity, 37C, in PBS. As for the experimental part: Characterization of MR imaging efficacy for compounds 4, 9 & 14. MR imaging was performed on a 4.7 Tesla preclinical MRI using the ParaVision 3.0.2 acquisition platform (Bruker Biospin, Billerica Mass.). In vitro relaxivities were acquired using the Bruker G060 gradient insert and a quadrature radiofrequency coil (35 mm ID, m2m Imaging, Cleveland Ohio). In vivo imaging in rat models utilized larger Accustar® shield gradients (150 mm ID) and a quadrature radiofrequency coil (72 mm ID, Bruker Biospin).
T1 and T2 relaxivities for compounds 4, 9 & 14 were acquired at 37C. Samples were diluted in PBS with concentrations ranging from 50 to 200 μM and transferred to NMR tubes for imaging. A tube containing 1× PBS was included as a “0 μM control”. T1 relaxation rates of serial dilutions were measured using an inversion-recovery TrueFISP acquisition with the following parameters: TE/TR=1.5/3.0 ms, flip angle=30°, inv. Repetition time=10 s, segments=8, frames=100. T2 relaxation rates were measured using a multi-echo, Carr-Purcell-Meiboom-Gill (CPMG) spin-echo sequence with a fixed TR of 3000 ms and TE times ranging from 20-1200 ms in 20 ms increments (60 echoes). The relaxation rate of each sample calculated using non-linear regression analysis routines developed in MATLAB (MathWorks, Natick, Mass.) and relaxivities were then calculated by linear regression (concentration vs. relaxation rate).

The test system of another data set is Ward rat tumor. As to conditions: HPPH alone, previous findings; cited from earlier work.

Take `O=C([O-])CN1CCN(CC(=O)[O-])CCN(CC(=O)O)CCN(CC(=O)[O-])CC1.[Gd+3]` [Gd-DOTA]: the “rl at 4.7T” value in data set [1] is 2.8 mM/s.
Regarding `CCCCCCOC(C)c1c(C)c2cc3nc(c4c5[nH]c(cc6nc(cc1[nH]2)C(C)=C6CC)c(C)c5C(=O)C4)[C@@H](CCC(=O)N(CC(=O)NCCNC(=O)CN1CCN(CC(=O)[O-])CCN(CC(=O)[O-])CCN(CC(=O)[O-])CC1)CC(=O)NCCNC(=O)CN1CCN(CC(=O)[O-])CCN(CC(=O)[O-])CCN(CC(=O)[O-])CC1)C3C.[Gd+3].[Gd+3]` (some centres unmarked) [compound 9], the “rl at 4.7T” value in data set [2] turned out to be 10.65 mM/s.
On to `CCCCCCOC(C)c1c(C)c2cc3nc(c4c5[nH]c(cc6nc(cc1[nH]2)C(C)=C6CC)c(C)c5C(=O)C4)[C@@H](CCC(=O)O)[C@@H]3C` (some centres unmarked) [HPPH, 3-(1-hexyloxyethyl) pyropheophorbide-a], for which the “time of peak concentrations” value in the data set on Ward rat tumor is 24 h.
With `O=C([O-])CN(CCN(CC(=O)[O-])CC(=O)O)CCN(CC(=O)[O-])CC(=O)O.[Gd+3]` [Gd-DTPA, Gadolinium-diethyline-triamine pentacetic-acid], the “rl at 4.7T” value in data set [1] was 3.2 mM/s.
Turning to `CCCCCCOC(C)c1c(C)c2cc3nc(c4c5[nH]c(cc6nc(cc1[nH]2)C(C)=C6CC)c(C)c5C(=O)C4)[C@@H](CCC(=O)NCCNC(=O)CN1CCN(CC(=O)[O-])CCN(CC(=O)[O-])CCN(CC(=O)[O-])CC1)C3C.[Gd+3]` (some centres unmarked) [compound 4], the “rl at 4.7T” value in data set [2] is 4.44 mM/s.
